Measurements as given in paper PMC2852844, “Anti-Parasitic Compounds from Streptomyces sp. Strains Isolated from Mediterranean Sponges” (Marine Drugs, 2010).
Like-named read-outs stand apart in the source and are kept apart here.

Columns and labels:
in vitro = conditions: human
Method: (§1) Following the addition of 20 μL of Alamar Blue, the plates were incubated and the ODs measured at 24 h, 48 h and 72 h.

[1] = tested on: Trypanosoma brucei brucei laboratory strain TC 221; assay: Trypanosoma brucei brucei trypomastigote growth inhibition (Alamar Blue); type: cell-based
Method: [22] Trypomastigote forms of Trypanosoma brucei brucei laboratory strain TC 221 were cultured in complete Baltz medium [80 mL Baltz medium basic solution, 0.8 mL 2 mercaptoethanol stock solution (20 mM), 0.8 mL penicillin/streptomycin (10,000 U/mL), 16 mL FCS (inactivated for 30 min at 56 °C). Baltz medium basic solution is composed of the following: 500 mL MEM with Earle’s salts and L-glutamine, 3 g Hepes, 0.5 g monohydrate glucose, 0.110 g sodium pyruvate, 0.007 g hypoxanthine, 0.002 g thymidine, 0.0107 g adenosine, 0.0141 g bathocuproine disulfonic acid disodium salt, 0.146 g glutamine, 5 mL sterile non-essential amino acid concentrate (100×, pH 7.5). A defined number of parasites ([…]) were exposed in test chambers of 96-well plates to various concentrations of the test substances (previously dissolved in DMSO) to make a final volume of 200 μL in duplicates. Positive (trypanosomes in culture medium) and negative controls (test substance without trypanosomes) were run simultaneously with each plate. The plates were then incubated at 37 °C in an atmosphere of 5% CO2 for a total time period of 72 h. After 24 h, 20 μL of Alamar Blue was added. […]. The first reading was done at 48 h and subsequently at 72 h. The effect of the test substances was quantified in IC50 values by linear interpolation of three independent measurements.

[2] = Cytotoxicity against J774.1 macrophages (Alamar Blue); conditions: mouse
Method: as §1

[3] = Cytotoxicity against 293T kidney epithelial cells (Alamar Blue); conditions: human
Method: as §1

[4] = tested on: Leishmania major promastigotes; assay: Leishmania major promastigote growth inhibition (Alamar Blue); type: cell-based
Method: Leishmania major promastigotes were seeded at a cell density of 1 × 10^7 cells/mL into 96-well plates in complete medium (RPMI with NaHCO3, 10% FCS, 2 mM glutamine, 10 mM Hepes pH 7.2, 100 U/mL penicillin, 50 μg/mL gentamicin, 50 mM 2-mercaptoethanol) without phenol red (200 mL), in the absence or presence of different concentrations of the compounds. These were then incubated for 24 h at 26 °C, 5% CO2 and 95% humidity. Following the addition of 20 mL of Alamar Blue, the plates were incubated again and the optical densities (ODs) measured 24 h and 48 h later with an enzyme-linked immunosorbent assay (ELISA) reader (Multiskan Ascent, Germany) using a test wavelength of 540 nm and a reference wavelength of 630 nm. Absorbance in the absence of compounds was set as 100% of growth. Amphotericin B was used as a reference compound and positive control. The effects of cell density, incubation time and the concentration of DMSO were examined in control experiments. The final concentration of DMSO in the medium never exceeded 1% vol/vol and had no effect on the proliferation of extracellular or intracellular parasites. For each experiment, each drug concentration was assayed in duplicate wells [31]

Q: Which IC50 (in vitro) does the source give for CN[C@@H]1C[C@H]2O[C@@](C)([C@@H]1OC)n1c3ccccc3c3c4c(c5c6ccccc6n2c5c31)C(=O)NC4 [staurosporine] here?
A: 1300 nM

Q: And the IC50 ([1]; reading at 48 h, read-out: IC50 Trypanosoma brucei brucei (48 h))?
A: 22 nM

Q: What about the IC50 ([1]; reading at 72 h, read-out: IC50 Trypanosoma brucei brucei (72 h)) of the same compound?
A: 35 nM

Q: Which IC50 at 24 h [2] does the source give for CC(C)[C@@H]1NC(=O)[C@H](C)OC(=O)[C@@H](C(C)C)NC(=O)[C@@H](C(C)C)OC(=O)[C@H](C(C)C)NC(=O)[C@H](C)OC(=O)[C@@H](C(C)C)NC(=O)[C@@H](C(C)C)OC(=O)[C@H](C(C)C)NC(=O)[C@H](C)OC(=O)[C@@H](C(C)C)NC(=O)[C@@H](C(C)C)OC1=O [valinomycin] here?
A: < 100 nM

Q: What about the IC50 at 24 h [3] of the same compound?
A: 11200 nM

Q: And the IC50 ([1]; 48 h, read-out: IC50 Trypanosoma brucei brucei (48 h))?
A: 3.2 nM

Q: And the IC50 ([1]; 72 h, read-out: IC50 Trypanosoma brucei brucei (72 h))?
A: 3.6 nM

Q: What about the IC50 [4] of the same compound?
A: < 110 nM
